Assay results: ChEMBL document CHEMBL4673388, “Enhancing Antimicrobial Peptide Potency through Multivalent Presentation on Coiled-Coil Nanofibrils” (ACS Med Chem Lett, 2021)
Converted amounts (≈) assume the structure as drawn. The source made the active and inactive calls. The calls are words filed in the database; no cut-off is given here. Residues, ends and D or L forms follow the SMILES beside them.

What was measured:
Cell membrane = test: Disruption of cell membrane in methicillin-resistant Staphylococcus aureus ATCC 43300 assessed as complete rupture of bacterial cell surface at 9 ug/ml incubated for 3 hrs by scanning electron microscopy; type: subcellular; details: dose 9.0 µg/ml
HEK293 [1] = test: Cytotoxicity against human HEK293 cells up to 90 ug/ml measured after 48 hrs compound conjugated on alpha-helical coiled-coil FF03 peptide by CCK8 assay; type: cell-based; details: hek293, 48 h, dose <=90 µg/ml
HEK293 [2] = test: Cytotoxicity against human HEK293 cells up to 90 ug/ml measured after 48 hrs by CCK8 assay; type: cell-based; details: hek293, 48 h, dose <=90 µg/ml
MCF7 [3] = test: Cytotoxicity against human MCF7 cells up to 90 ug/ml measured after 48 hrs compound conjugated on alpha-helical coiled-coil FF03 peptide by CCK8 assay; type: cell-based; details: mcf7, 48 h, dose <=90 µg/ml
MCF7 [4] = test: Cytotoxicity against human MCF7 cells up to 90 ug/ml measured after 48 hrs by CCK8 assay; type: cell-based; details: mcf7, 48 h, dose <=90 µg/ml
[5] = Hemolytic activity in human red blood cells at 100 ug/ml incubated for 45 mins compound conjugated on alpha-helical colied-coil FF03 peptide; type: ADME, cell-based, Erythrocyte; details: red blood cells (erythrocytes), at 100 µg/mL, read-out: Activity
[6] = Hemolytic activity in human red blood cells at 100 ug/ml incubated for 45 mins; type: ADME, cell-based, Erythrocyte; details: red blood cells (erythrocytes), at 100 µg/mL, read-out: Activity
Staphylococcus aureus [7] = test: Bactericidal activity against methicillin-resistant Staphylococcus aureus ATCC 43300 assessed as reduction in bacterial growth at MIC compound conjugated on alpha-helical coiled-coil FF03 peptide measured within 5 hrs by time kill assay; type: functional, organism-based; details: time hrs <=5
Staphylococcus aureus [8] = test: Bactericidal activity against methicillin-resistant Staphylococcus aureus ATCC 43300 assessed as reduction in bacterial growth at MIC measured for 25 hrs by time kill assay; type: functional, organism-based
Pseudomonas aeruginosa [9] = test: Antibacterial activity against Pseudomonas aeruginosa ATCC 15442 assessed as inhibition of bacterial growth incubated for 16 to 20 hrs compound conjugated on alpha-helical coiled-coil FF03 peptide by microdilution method; type: functional; details: time 16-20 hrs
Staphylococcus aureus [10] = test: Antibacterial activity against methicillin-resistant Staphylococcus aureus ATCC 43300 assessed as inhibition of bacterial growth incubated for 16 to 20 hrs compound conjugated on alpha-helical coiled-coil FF03 peptide by microdilution method; type: functional; details: time 16-20 hrs
Staphylococcus aureus [11] = test: Antibacterial activity against Staphylococcus aureus ATCC 25923 assessed as inhibition of bacterial growth incubated for 16 to 20 hrs compound conjugated on alpha-helical coiled-coil FF03 peptide by microdilution method; type: functional; details: time 16-20 hrs
Escherichia coli [12] = test: Antibacterial activity against Escherichia coli ATCC 25922 assessed as inhibition of bacterial growth incubated for 16 to 20 hrs compound conjugated on alpha-helical coiled-coil FF03 peptide by microdilution method; type: functional; details: time 16-20 hrs
Pseudomonas aeruginosa [13] = test: Antibacterial activity against Pseudomonas aeruginosa ATCC 15442 assessed as inhibition of bacterial growth incubated for 16 to 20 hrs by microdilution method; type: functional; details: time 16-20 hrs
Staphylococcus aureus [14] = test: Antibacterial activity against methicillin-resistant Staphylococcus aureus ATCC 43300 assessed as inhibition of bacterial growth incubated for 16 to 20 hrs by microdilution method; type: functional; details: time 16-20 hrs
Staphylococcus aureus [15] = test: Antibacterial activity against Staphylococcus aureus ATCC 25923 assessed as inhibition of bacterial growth incubated for 16 to 20 hrs by microdilution method; type: functional; details: time 16-20 hrs
Escherichia coli [16] = test: Antibacterial activity against Escherichia coli ATCC 25922 assessed as inhibition of bacterial growth incubated for 16 to 20 hrs by microdilution method; type: functional; details: time 16-20 hrs

In the case of `CC(C)C[C@H](NC(=O)[C@@H](N)CCCNC(=N)N)C(=O)N1CCC[C@H]1C(=O)N[C@@H](Cc1c[nH]c2ccccc12)C(=O)N[C@@H](CCCNC(=N)N)C(=O)N[C@@H](Cc1c[nH]c2ccccc12)C(=O)N1CCC[C@H]1C(=O)N[C@@H](CCCNC(=N)N)C(=O)N[C@@H](CCCNC(=N)N)C(=O)N1CCC[C@H]1C(=O)N[C@@H](Cc1c[nH]c2ccccc12)C(=O)N[C@@H](CCCNC(=N)N)C(=O)N[C@@H](CCCNC(=N)N)C(=O)O` (H-RLPWRWPRRPWRR-OH), the Activity (Cell membrane) is reported as “Active”, the Activity (HEK293 [1]) is reported as “Non-Toxic” and the Activity (HEK293 [2]) is reported as “Non-Toxic”. For the same molecule, the Activity (MCF7 [3]) was “Non-Toxic”, the Activity (MCF7 [4]) was “Non-Toxic” and the hemolysis at 0.75 h, 100 ug/ml [5] was less than 15%. For the same molecule, the hemolysis at 0.75 h, 100 ug/ml [6] was less than 15%, the Activity (Staphylococcus aureus [7]) was “Active” and the Activity (Staphylococcus aureus [8]) was “Active”. For the same molecule, the MIC (Pseudomonas aeruginosa [9]) was 1.36 µM (≈ 2.61 µg/mL), the MIC (Staphylococcus aureus [10]) was 1.75 µM (≈ 3.36 µg/mL) and the MIC (Staphylococcus aureus [11]) was 0.97 µM (≈ 1.86 µg/mL). For the same molecule, the MIC (Escherichia coli [12]) was 2.34 µM (≈ 4.49 µg/mL), the MIC (Pseudomonas aeruginosa [13]) was 65.2 µM (≈ 125 µg/mL) and the MIC (Staphylococcus aureus [14]) was 130 µM (≈ 250 µg/mL). For the same molecule, the MIC (Staphylococcus aureus [15]) was 65.2 µM (≈ 125 µg/mL) and the MIC (Escherichia coli [16]) was 130 µM (≈ 250 µg/mL).
Molecule `CC(=O)NC[C@H]1CN(c2ccc(N3CCOCC3)c(F)c2)C(=O)O1` [LINEZOLID] has an MIC (Staphylococcus aureus [14]) of 4 µM (≈ 1.35 µg/mL) and an MIC (Staphylococcus aureus [15]) of 1.5 µM (≈ 0.506 µg/mL).
Molecule `COc1cc(Cc2cnc(N)nc2N)cc(OC)c1OC` [TRIMETHOPRIM] has an MIC (Staphylococcus aureus [14]) of 2 µM (≈ 0.581 µg/mL).
Molecule `NC[C@H]1O[C@H](O[C@H]2[C@H](O)[C@@H](O[C@H]3O[C@H](CO)[C@@H](O)[C@H](N)[C@H]3O)[C@H](N)C[C@@H]2N)[C@H](O)[C@@H](O)[C@@H]1O` [KANAMYCIN] has an MIC (Staphylococcus aureus [14]) greater than 128 µM.
In the case of `CC[C@H]1OC(=O)[C@H](C)[C@@H](O[C@H]2C[C@@](C)(OC)[C@@H](O)[C@H](C)O2)[C@H](C)[C@@H](O[C@@H]2O[C@H](C)C[C@H](N(C)C)[C@H]2O)[C@](C)(O)C[C@@H](C)C(=O)[C@H](C)[C@@H](O)[C@]1(C)O` [ERYTHROMYCIN], the MIC (Staphylococcus aureus [14]) is reported as greater than 128 µM.
Molecule GENTAMICIN has an MIC (Pseudomonas aeruginosa [13]) of 1.63 µM.
In the case of `CN[C@H](CC(C)C)C(=O)N[C@H]1C(=O)N[C@@H](CC(N)=O)C(=O)N[C@H]2C(=O)N[C@H]3C(=O)N[C@H](C(=O)N[C@H](C(=O)O)c4cc(O)cc(O)c4-c4cc3ccc4O)[C@H](O)c3ccc(c(Cl)c3)Oc3cc2cc(c3O[C@@H]2O[C@H](CO)[C@@H](O)[C@H](O)[C@H]2O[C@H]2C[C@](C)(N)[C@H](O)[C@H](C)O2)Oc2ccc(cc2Cl)[C@H]1O` [VANCOMYCIN], the MIC (Staphylococcus aureus [14]) is reported as 0.5 µM (≈ 0.725 µg/mL) and the MIC (Staphylococcus aureus [15]) is reported as 1.38 µM (≈ 2 µg/mL).
